Reference: PMC5882164, “A novel calcimimetic agent, evocalcet (MT-4580/KHK7580), suppresses the parathyroid cell function with little effect on the gastrointestinal tract or CYP isozymes in vivo and in vitro” (PLoS ONE, 2018)
Several values for one entry are separate records, joined by “and”; a condition that tells them apart may be missing. Equal entries are not always repeated.

Experiments:
CYP2C19 = target: T1, CYP2C19 (Homo sapiens, UniProt P33261); assay: CYP inhibition assay in human liver microsomes; assay type: in vitro ADME; settings: no pre-incubation, read-out: IC50 direct inhibition of CYP2C19
T1 construct: from tissue; host or cells: human liver microsomes
Description: Each CYP substrate was incubated with human liver microsomes in the absence or presence of evocalcet, and the inhibition of evocalcet for each CYP isozyme was measured.

CYP2A6 = target: T2, CYP2A6 (Homo sapiens, UniProt P11509); assay: CYP inhibition assay in human liver microsomes; assay type: in vitro ADME; settings: no pre-incubation, read-out: IC50 direct inhibition of CYP2A6
T2 construct: from tissue; host or cells: human liver microsomes
T2 sequence (P11509 1-494): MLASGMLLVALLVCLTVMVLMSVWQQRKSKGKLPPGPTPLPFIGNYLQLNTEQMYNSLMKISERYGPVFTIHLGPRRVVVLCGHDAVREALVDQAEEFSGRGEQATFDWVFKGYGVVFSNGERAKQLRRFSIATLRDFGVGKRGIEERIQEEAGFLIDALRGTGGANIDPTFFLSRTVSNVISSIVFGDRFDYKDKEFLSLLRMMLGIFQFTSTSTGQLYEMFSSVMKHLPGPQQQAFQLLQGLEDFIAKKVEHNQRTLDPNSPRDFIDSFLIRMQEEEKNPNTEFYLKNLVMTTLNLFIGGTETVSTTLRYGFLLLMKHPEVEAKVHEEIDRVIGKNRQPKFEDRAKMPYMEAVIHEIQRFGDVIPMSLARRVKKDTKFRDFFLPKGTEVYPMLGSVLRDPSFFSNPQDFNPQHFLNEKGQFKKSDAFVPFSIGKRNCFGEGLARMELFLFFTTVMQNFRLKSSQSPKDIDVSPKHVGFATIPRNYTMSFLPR
Description: (§1) The direct inhibition of evocalcet (0.15~50 μM, 6-point concentrations) against the specific activities of 9 CYP isozymes (CYP1A2, CYP2A6, CYP2B6, CYP2C8, CYP2C9, CYP2C19, CYP2D6, CYP2E1, and CYP3A4/5) was examined in human liver microsomes without the pre-incubation of evocalcet, in the presence of the NADPH-generating system. Each CYP substrate was incubated with human liver microsomes in the absence or presence of evocalcet, and the inhibition of evocalcet for each CYP isozyme was measured.

CYP2D6 = CYP2D6 (Homo sapiens, UniProt P10635); assay: CYP inhibition assay in human liver microsomes; assay type: in vitro ADME; settings: no pre-incubation
Description: as §1

serum PTH = assay: 5/6 nephrectomized rats study: serum PTH level; assay type: in vivo, rat; settings: 5/6 Nx rats; for Serum PTH levels before (day 0) and 24 h after evocalcet administration, Mean: group mean; for Serum PTH levels before (day 0) and 24 h after evocalcet administration: individual rats
Description: Rats were 5/6 nephrectomized in two steps. Under anesthesia (pentobarbital, 50 mg/kg; intraperitoneally) and analgesia (lidocaine; topically), two-thirds of the left kidney was removed, and then the right kidney was removed after a seven-day interval. Seven days after the completion of 5/6 nephrectomy, the FR-2 diet was changed to a high-phosphate diet, containing 0.6% calcium and 0.9% phosphate (Oriental Yeast Co., Ltd., Tokyo, Japan). Approximately 2 weeks after the initiation of the high-phosphate diet, the 5/6 Nx rats were divided into five groups (n = 12/group) matched in terms of their body weight as well as their blood urea nitrogen (BUN) and serum PTH and calcium levels.
In the single-dose study, blood samples were collected from the tail vein before and at 0.5, 2, 4, 8, 24, 48, and 72 h after the oral administration of vehicle (0.5% methyl cellulose solution) or evocalcet (0.03, 0.1, 0.3, or 1 mg/kg). In the repeated-dose study, vehicle or evocalcet was orally administered to the respective groups once daily for 14 days. Blood samples were obtained from the tail vein before the first administration and after the seventh and last administrations.
The serum PTH level was measured using a Rat Intact PTH ELISA kit (Immutopics, Inc., San Clemente, CA). The serum calcium, phosphate and BUN levels were measured using an auto analyzer (Hitachi High-Technologies Corporation., Tokyo, Japan) or the following test kits: the Calcium E-test WAKO, the Phospha C-test WAKO, or the Blood Urea nitrogen B-test WAKO (Wako Pure Chemical Industries, Ltd., Osaka, Japan).

Sequence of CYP2D6 (P10635 whole entry): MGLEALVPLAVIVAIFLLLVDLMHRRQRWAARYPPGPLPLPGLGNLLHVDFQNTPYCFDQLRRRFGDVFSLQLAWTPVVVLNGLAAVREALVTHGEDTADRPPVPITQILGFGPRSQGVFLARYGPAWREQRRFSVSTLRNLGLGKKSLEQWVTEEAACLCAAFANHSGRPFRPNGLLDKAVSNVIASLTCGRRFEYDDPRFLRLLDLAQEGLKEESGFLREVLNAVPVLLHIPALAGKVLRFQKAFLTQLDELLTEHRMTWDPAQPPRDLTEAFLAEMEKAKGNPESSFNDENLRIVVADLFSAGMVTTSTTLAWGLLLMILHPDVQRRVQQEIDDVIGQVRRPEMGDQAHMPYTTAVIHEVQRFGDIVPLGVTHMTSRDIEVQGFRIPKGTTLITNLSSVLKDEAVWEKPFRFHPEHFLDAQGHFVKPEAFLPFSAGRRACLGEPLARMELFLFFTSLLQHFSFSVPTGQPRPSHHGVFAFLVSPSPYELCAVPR
T1 sequence (P33261 whole entry): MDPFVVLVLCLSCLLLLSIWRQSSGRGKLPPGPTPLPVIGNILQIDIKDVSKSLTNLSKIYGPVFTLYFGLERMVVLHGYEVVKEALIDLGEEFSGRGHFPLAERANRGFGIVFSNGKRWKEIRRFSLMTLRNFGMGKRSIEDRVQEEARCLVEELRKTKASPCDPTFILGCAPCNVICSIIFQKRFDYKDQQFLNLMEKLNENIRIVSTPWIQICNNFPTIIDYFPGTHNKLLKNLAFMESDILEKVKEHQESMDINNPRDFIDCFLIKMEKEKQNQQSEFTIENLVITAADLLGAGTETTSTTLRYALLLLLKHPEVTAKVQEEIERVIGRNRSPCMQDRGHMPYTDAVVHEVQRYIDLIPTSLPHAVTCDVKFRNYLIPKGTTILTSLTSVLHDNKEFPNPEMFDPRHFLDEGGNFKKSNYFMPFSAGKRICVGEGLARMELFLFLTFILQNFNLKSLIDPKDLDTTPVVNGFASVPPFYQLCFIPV

C[C@@H](N[C@H]1CCN(c2ccc(CC(=O)O)cc2)C1)c1cccc2ccccc12 [evocalcet] was tested, and the IC50 (CYP2C19) was > 50 µM, the IC50 (CYP2A6) was > 50 µM and the “CYP2D6 activity in the presence of evocalcet” value (CYP2D6; 50 μM evocalcet, direct inhibition) was 50.7%. The IC50 (CYP2D6; read-out: IC50 direct inhibition of CYP2D6) was > 50 µM, the “Serum PTH levels after the first administration” value (serum PTH; 0.03 mg/kg, 0 h, group mean of 12 rats) was 2235.149 and the “Serum PTH levels after the first administration” value (serum PTH; 0.03 mg/kg, 0 h, individual rat) was 3146.838 and 3130.460 and 2411.903 and 1952.597 and 3363.037 and 1097.629. For the same compound, the “Serum PTH levels after the first administration” value (serum PTH; 0.03 mg/kg, 0.5 h, group mean of 12 rats) was 2132.775, the “Serum PTH levels after the first administration” value (serum PTH; 0.03 mg/kg, 0.5 h, individual rat) was 4101.960 and 5220.639 and 2506.611 and 3090.422 and 3558.006 and 125.411 and the “Serum PTH levels after the first administration” value (serum PTH; 0.03 mg/kg, 2 h, group mean of 12 rats) was 2186.293. For the same compound, the “Serum PTH levels after the first administration” value (serum PTH; 0.03 mg/kg, 2 h, individual rat) was 4890.509 and 4068.711 and 2185.504 and 3005.600 and 4664.020 and 345.560, the “Serum PTH levels after the first administration” value (serum PTH; 0.03 mg/kg, 4 h, group mean of 12 rats) was 2269.553 and the “Serum PTH levels after the first administration” value (serum PTH; 0.03 mg/kg, 4 h, individual rat) was 4679.877 and 4835.119 and 2331.859 and 3883.490 and 3137.288 and 547.391. For the same compound, the “Serum PTH levels after the first administration” value (serum PTH; 0.03 mg/kg, 8 h, group mean of 12 rats) was 2414.885, the “Serum PTH levels after the first administration” value (serum PTH; 0.03 mg/kg, 8 h, individual rat) was 5964.855 and 4334.746 and 2555.658 and 4291.517 and 2662.474 and 769.912 and the “Serum PTH levels after the first administration” value (serum PTH; 0.03 mg/kg, 24 h, group mean of 12 rats) was 2792.495. For the same compound, the “Serum PTH levels after the first administration” value (serum PTH; 0.03 mg/kg, 24 h, individual rat) was 4890.842 and 5921.359 and 2295.822 and 3334.469 and 3685.692 and 634.649, the “Serum PTH levels before (day 0) and 24 h after evocalcet administration, Mean” value (serum PTH; 0.03 mg/kg, day 0 (Before)) was 2235.149 and the “Serum PTH levels before (day 0) and 24 h after evocalcet administration” value (serum PTH; 0.03 mg/kg, day 0 (Before), 0.03 mg/kg) was 3146.838 and 3130.460 and 2411.903 and 1952.597 and 3363.037 and 1097.629 and 2977.436 and 1709.257 and 736.362 and 1492.356 and 1948.854 and 2855.064. For the same compound, the “Serum PTH levels before (day 0) and 24 h after evocalcet administration, Mean” value (serum PTH; 0.03 mg/kg, day 7 (24 h)) was 1440.297, the “Serum PTH levels before (day 0) and 24 h after evocalcet administration” value (serum PTH; 0.03 mg/kg, day 7 (24 h), 0.03 mg/kg) was 175.760 and 1003.083 and 756.245 and 2355.229 and 3361.800 and 1990.106 and 170.127 and 208.561 and 3498.638 and 332.146 and 1090.222 and 2341.644 and the “Serum PTH levels before (day 0) and 24 h after evocalcet administration, Mean” value (serum PTH; 0.03 mg/kg, day 14 (24 h)) was 2303.348. The “Serum PTH levels before (day 0) and 24 h after evocalcet administration” value (serum PTH; 0.03 mg/kg, day 14 (24 h), 0.03 mg/kg) was 4997.693 and 3995.599 and 1879.977 and 3492.362 and 3523.261 and 468.569 and 465.344 and 1621.501 and 608.285 and 1702.644 and 1919.474 and 2965.469, the “Serum PTH levels after the first administration” value (serum PTH; 0.1 mg/kg, 0 h, individual rat) was 2191.024 and 4476.799 and 4734.069 and 3561.219 and 1608.879 and 3394.625 and 2344.750 and 2855.532 and 1478.317 and 2515.323 and the “Serum PTH levels after the first administration” value (serum PTH; 0.1 mg/kg, 0.5 h, individual rat) was 697.065 and 166.990 and 643.814 and 188.145 and 87.713 and 1427.254 and 2994.134 and 497.193 and 52.922 and 216.107. For the same compound, the “Serum PTH levels after the first administration” value (serum PTH; 0.1 mg/kg, 2 h, individual rat) was 921.070 and 152.688 and 1274.188 and 268.767 and 48.850 and 837.618 and 3213.565 and 734.412 and 45.617 and 171.332, the “Serum PTH levels after the first administration” value (serum PTH; 0.1 mg/kg, 4 h, individual rat) was 1346.496 and 622.337 and 1091.618 and 881.643 and 178.355 and 1445.792 and 3885.042 and 1344.283 and 585.655 and 429.439 and the “Serum PTH levels after the first administration” value (serum PTH; 0.1 mg/kg, 8 h, individual rat) was 1602.872 and 1239.629 and 2688.836 and 1069.819 and 616.193 and 1780.899 and 3893.446 and 2481.366 and 541.217. For the same compound, the “Serum PTH levels after the first administration” value (serum PTH; 0.1 mg/kg, 24 h, individual rat) was 2327.970 and 3050.546 and 5188.511 and 1270.996 and 1634.838 and 3384.643 and 3324.854 and 2293.418 and 169.556, the “Serum PTH levels before (day 0) and 24 h after evocalcet administration, Mean” value (serum PTH; 0.1 mg/kg, day 0 (Before)) was 3005.615 and the “Serum PTH levels before (day 0) and 24 h after evocalcet administration” value (serum PTH; 0.1 mg/kg, day 0 (Before), 0.1 mg/kg) was 2191.024 and 4476.799 and 4734.069 and 3561.219 and 1608.879 and 3394.625 and 2344.750 and 2855.532 and 1478.317 and 2515.323 and 3938.529 and 2968.311.
